Measured values as given in patent publication US20170198044A1, “COMPOSITIONS AND METHODS FOR SAFE AND EFFECTIVE IMMUNOTHERAPY” (TheraMAB LLC, priority 2014, published 2017).

Assays:
Assay type in all cases: cell-based, human
Treg cells = assay: Treg-cell vs Tconv-cell expansion and proliferation in HD precultured PBMCs (flow cytometry, Ki67, CFSE); details: 0.01 mM MP, TAB08 1 μg/mL
Procedure: Treg-cell (CD25^hiFoxp3^+) and activated Tconv-cell (CD25^loFoxp3^−) frequencies among gated CD4^+ T cells were then assessed by flow cytometry using a live light-scatter entrance gate. […] Treg-cell frequencies among CD4^+ T cells and absolute numbers of Treg cells were determined by flow cytometry after 5 days of culture. […] Treg-cell versus Tconv-cell expansion in CD25-depleted and nondepleted PBMC cultures was then assessed by flow cytometry, using a live light-scatter entrance gate followed by gates for CD4^+Foxp3^− (left dot plots) and CD4^+Foxp3^+ (right dot plots). […] Proliferation was assessed by, in Panel D, the expression of Ki67 and Panel E CFSE dilution. *denotes insufficient number of cells for evaluation. […]
Cell proliferation was measured from day 2 to 3 as radioactivity incorporated from [H^3] thymidine (1 μCi per well, Hartmann Analytic GmbH) into DNA, using a liquid scintillation counter (PerkinElmer). Results are expressed as counts per minute (cpm). […]
For phenotypic analysis, cells were stained with the appropriate antibodies for 20 min at 4° C., washed once with FACS buffer (PBS, 0.1% BSA, 0.2% NaN3), and fixed with 2% paraformaldehyde. […] Data were analyzed using FlowJo Version 9.4.11 software (TreeStar). Results are shown as log 10 fluorescence intensities. […]

[1] = tested on: PBMC samples taken from RA patients; assay: In vitro RESTORE system: cytokine production by PBMC samples from RA patients; details: OKT3 1 μg/ml
Source text: The purpose of the RESTORE method application was definition of safety parameters of the use of TAB08 antibody and the possibility of participation of RA patients in clinical trials, in particular:
To determine the levels of response of peripheral blood mononuclear cells of RA patients to various concentrations of TAB08, i.e. trace the dose-dependence of cytokine release by mononuclear cells exposed to TAB08 in vitro.
To determine the ability of methylprednisolone, which has an anti-inflammatory effect, to suppress TAB08-induced cytokine release.
(§1) PBMC were cultured in supplemented RPMI 1640 containing 10% AB-positive heat-inactivated human serum (Sigma) for two days at high cell density (HD; 1×10^7/ml) to allow tissue-like interactions. Cells were then harvested and cultured under standard conditions (1×10^6/ml) in 96 or 48-well flat-bottom tissue culture plates in a final volume of 0.2 or 0.6 ml in a humidified incubator at 37° C. with 5% CO2. Intracellular Ki67 staining was used to measure cell proliferation. For intracellular staining of Foxp3, Ki67 and CD4, cells were first surface stained, permeabilized with Fix/Perm (eBioscience), and stained with the appropriate antibodies diluted in Perm/Wash (eBioscience). FACS analysis was performed using a FACSCalibur flow cytometer (BD Biosciences). Data were analyzed using FlowJo software (TreeStar).

regulatory T cells = assay: Regulatory T cells and Ki67+ Tregs in RESTORE system, PBMC samples from RA patients (Table 16)
Procedure: as §1

[2] = tested on: anti-CD3 stimulated CFSE-labeled CD4+ T cells; assay: Treg-cell suppression assay; details: Enbrel during Treg-cell expansion, RA patient

With C[C@H]1C[C@@H]2[C@H]([C@@H](O)C[C@@]3(C)[C@H]2CC[C@]3(O)C(=O)CO)[C@@]2(C)C=CC(=O)C=C12 [MP, methylprednisolone] the “suppression of division of CD4+ Tconv cells (CFSE)” value (Treg cells) was ~80%.

With “OKT3: Clinical grade OKT3 (Janssen-Cilag), anti-CD3 (anti-TCR) antibody used as stimulus” the IL-2 production [1] was 0.00 pg/mL, the “% FoxP3+/CD4+” value (regulatory T cells; Patient 0104, OKT3 1 μg_mL) was 4.96% and the “% Ki67+/FoxP3+ CD4+” value (regulatory T cells; Patient 0104, OKT3 1 μg_mL) was 84.9%. The “% FoxP3+/CD4+” value (regulatory T cells; Patient 0105, OKT3 1 μg_mL) was 5.1%, the “% Ki67+/FoxP3+ CD4+” value (regulatory T cells; Patient 0105, OKT3 1 μg_mL) was 80.5% and the “% FoxP3+/CD4+” value (regulatory T cells; Patient 0204, OKT3 1 μg_mL) was 4.52%. The “% Ki67+/FoxP3+ CD4+” value (regulatory T cells; Patient 0204, OKT3 1 μg_mL) was 77.7%, the “% FoxP3+/CD4+” value (regulatory T cells; Patient 0205, OKT3 1 μg_mL) was 4.62% and the “% Ki67+/FoxP3+ CD4+” value (regulatory T cells; Patient 0205, OKT3 1 μg_mL) was 67.7%. For the same compound, the “% FoxP3+/CD4+” value (regulatory T cells; Patient 0206, OKT3 1 ug_ml) was 2.79% and the “% Ki67+/FoxP3+ CD4+” value (regulatory T cells; Patient 0206, OKT3 1 ug_ml) was 80.8%.

For Enbrel, the “effect on suppressive activity of TAB08-expanded Treg cells” value [2] was “did not lead to further enhancement of suppressive activity”.
